Reference: patent US10561666B2, “Amido compounds as RORγt modulators and uses thereof” (New York University, priority 2010, dated 2020)

Target: RORγt (Mus musculus, UniProt P51450, T352K)
Experiment: RORγt S2 cell Gal4-luciferase reporter assay
Details: for Emax: read-out: Efficacy (%)
[1] = IC50(μM), Drosophila S2 cells, Gal4-RORγt luciferase reporter, 20 hr
[2] = S2 cell RORg IC50 μM, S2 cell reporter assay, listed for comparison

Sequence of RORγt (P51450 with tags, fused parts or gaps T352K): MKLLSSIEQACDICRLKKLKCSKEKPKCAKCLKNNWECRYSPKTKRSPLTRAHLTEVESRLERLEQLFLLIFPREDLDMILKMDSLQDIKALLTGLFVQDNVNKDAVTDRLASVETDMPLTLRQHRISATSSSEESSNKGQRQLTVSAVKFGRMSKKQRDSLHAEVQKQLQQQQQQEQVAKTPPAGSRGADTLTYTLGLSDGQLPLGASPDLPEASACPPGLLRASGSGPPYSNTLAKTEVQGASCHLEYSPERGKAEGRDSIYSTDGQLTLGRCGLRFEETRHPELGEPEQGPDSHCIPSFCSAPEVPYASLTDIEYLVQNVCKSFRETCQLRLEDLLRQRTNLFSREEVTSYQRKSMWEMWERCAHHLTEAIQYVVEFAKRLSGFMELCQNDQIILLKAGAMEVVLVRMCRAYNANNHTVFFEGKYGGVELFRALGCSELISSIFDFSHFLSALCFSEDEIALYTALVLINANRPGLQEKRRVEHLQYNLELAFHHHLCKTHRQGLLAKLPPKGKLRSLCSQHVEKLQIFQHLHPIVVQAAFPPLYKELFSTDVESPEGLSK
Text: Methods: The Drosophila S2 cell line was originally purchased from Invitrogen and was maintained in Schneider's medium supplemented with 10% heat-inactivated bovine fetal calf serum and antibiotics (Invitrogen). […] The resulting chimeric gene was subcloned into the copper inducible pMT/V5-His A vector (available from Invitrogen).
In order to generate stable cell lines, cells were co-transfected with pMT-G4DBD-RORγt, pMT-G4DBD-RORα, pMT-G4DBD-DHR3, or pMT-G4DBDVP16 and pHygro plasmids (Invitrogen) and screened for resistant colonies in the presence of hygromycin (0.3 mg/mL).
Methods: 600 G4DBD-RORγ/γt-luc reporter (#25) or G4DBD-VP16-luc reporter cells were distributed into each well of 1,536-well white bottom plates in 4 μl S2 cell culture volume containing hygromicin (300 μg/ml) and puromycin (2 μg/ml). […] After one-hour incubation, 1 μl of culture medium solution containing copper sulfate (to final 0.7 mM) and 10 μM RORγ/γt antagonists were added to each well. After 20-hour incubation at ambient temperature, 1.5 μl firefly luciferase detection mix was added and the luciferase activities were measured in 10 min. ViewLux luminometers were used for measuring luciferase signal.
Since their cognate DNA binding sites were not well characterized, the DNA binding domains (DBD) of RORγ/γt, RORα (mouse homolog for POPγ), and DHR3 (Drosophila orthologue for ROR family proteins) were replaced with the heterologous yeast GAL4 DBD. The transcriptionally active domain of general transcriptional activator VP16 was also fused with GAL4 DBD. The GAL4 fusion constructs were placed under the control of a copper inducible promoter, and stable S2 cell lines with genomic integration of these four reporter constructs were generated. The copper inducible promoter ensures tight regulation of GAL4-fusion protein expression and it allows small molecules to get into the cells prior to protein induction, thus increasing their effects on GAL4 reporters. The stable reporter cell lines also encode the firefly luciferase reporter, whose expression is regulated by five copies of the GAL4 binding site enhancer (UAS), along with the pol III-driven Renilla luciferase reporter.
A cell-based reporter assay was used to detect RORγt-mediated activity. This assay, called RORγt□ employed Drosophila Schneider cells that were stably transfected with two vectors: a gene expressing a fusion of the Gal4 DNA binding domain and RORγt transactivation domain under the control of the metallothionine promoter and a Photinus luciferase reporter regulated by the Gal4 binding site enhancer, UAS. […] Cells (600/well) were dispensed into white solid 1536-well plates (Greiner) using a solenoid-based dispenser. Following transfer of 23 nL compound or DMSO vehicle by a pin tool, the plates were incubated 1 hr at ambient temperature, and 1 uL/well copper sulfate (700 uM final concentration) was added. The plates were centrifuged 15 s at 1000 RPM and incubated 20 hr at ambient temperature. After addition of 1.5 uL Photinus luciferase detection reagent, the plates were incubated 10 min at ambient temperature and then read by a ViewLux (Perkin Elmer) to detect luminescence. […] Efficacy is expressed as % of the maximal response of control inhibitor (Digoxin), set at 100%.

Row | SMILES | IC50 [1] | Emax | IC50 [2] | IC50 (Drosophila S2 cells, Gal4-RORγt luciferase reporter, 20 hr)
1 | CCN(CC)C(=O)CC(c1ccc2c(c1)OCO2)c1c(O)cc(OC)cc1OC (stereo not shown) [Compound 39] | 11 to 50 µM | 64.9% | – | –
2 | COc1cc(O)c(C(CC(=O)N2CCCCC2)c2ccc3c(c2)OCO3)c(OC)c1 (stereo not shown) [Compound 5] | 11 to 50 µM | 90.4% | – | –
3 | COc1cc(O)c(C(CC(=O)N2CCN(c3ccc(F)cc3)CC2)c2ccc3c(c2)OCO3)c(OC)c1 (stereo not shown) [Compound 40] | > 50 µM | – | – | –
4 | CC1CCCN(C(=O)CC(c2ccc3c(c2)OCO3)c2ccc(O)cc2O)C1 (stereo not shown) [Compound 122] | > 50 µM | – | – | –
5 | COc1cc(O)c(CCC(=O)N2CCCC(C)C2)c(OC)c1 (stereo not shown) [Compound 71] | > 50 µM | – | – | –
6 | COc1cc(O)c(C(CC(=O)N2CCCC(CN3CCCCC3)C2)c2ccc3c(c2)OCO3)c(OC)c1 (stereo not shown) [Compound 15] | > 50 µM | – | – | –
7 | COc1cc(O)c(C(CC(=O)N2CCCC(c3ccccc3)C2)c2ccc3c(c2)OCO3)c(OC)c1 (stereo not shown) [Compound 14] | 11 to 50 µM | 70.1% | – | –
8 | COc1ccc(C(CC(=O)Nc2ccc(F)cc2)c2ccccc2)cc1 (stereo not shown) [Compound 46] | > 50 µM | – | – | –
9 | CC1CCCN(C(=O)CC(c2ccccc2)c2ccccc2O)C1 (stereo not shown) [Compound 54] | > 50 µM | – | – | –
10 | Cc1ccc(C)c(C(CC(=O)N2CCCC(C)C2)c2ccc3c(c2)OCO3)c1O (stereo not shown) [Compound 113] | 11 to 50 µM | 81.5% | – | –
11 | COc1cc(O)c(C(CC(=O)N2CCCC(C)C2)c2ccccc2OC)c(OC)c1 (stereo not shown) [Compound 59] | > 50 µM | – | > 20 µM | –
12 | COc1cc(O)c(C(CC(=O)NCc2ccccc2)c2ccc3c(c2)OCO3)c(OC)c1 (stereo not shown) [Compound 21] | > 50 µM | – | – | –
13 | COc1ccc2ccccc2c1C(c1ccc(F)cc1)C(C)(C)C(=O)N1CC(C)OC(C)C1 (stereo not shown) [Compound 156] | 11 to 50 µM | 99.9% | – | –
14 | COc1cc(O)c(C(CC(=O)N2CC(C)CC(C)C2)c2ccc(OCc3ccccc3)cc2)c(OC)c1 (stereo not shown) [Compound 110] | – | – | – | 1 to 10 µM
15 | COc1cc(O)c(C(CC(=O)N2CCCC(C)C2)c2ccc(-c3ccccc3)cc2)c(OC)c1 (stereo not shown) [Compound 67] | 11 to 50 µM | 72% | 11 to 20 µM | –
16 | COc1cc(O)c(C(CC(=O)N2CCCC2)c2ccc3c(c2)OCO3)c(OC)c1 (stereo not shown) [Compound 37] | 11 to 50 µM | 27.1% | – | –
17 | COc1cc(OC)c(C(c2ccccc2)C(C)(C)C(=O)NC2CC(C)(C)CC(C)(C)C2)c(OC)c1 (stereo not shown) [Compound 154] | > 50 µM | – | – | –
18 | CC1CCCN(C(=O)CC(c2ccccc2)c2ccc(O)cc2)C1 (stereo not shown) [Compound 53] | > 50 µM | – | – | –
19 | COc1cc(O)c(C(CC(=O)N2CCC(Cc3ccccc3)CC2)c2ccc(C)cc2)c(OC)c1 (stereo not shown) [Compound 44] | > 50 µM | – | – | –

Row | SMILES | IC50 [1] | Emax | IC50 [2] | IC50 (Drosophila S2 cells, Gal4-RORγt luciferase reporter, 20 hr)
20 | COc1ccccc1C(CC(=O)Nc1ccc(F)cc1)c1ccccc1 (stereo not shown) [Compound 50] | > 50 µM | – | – | –
21 | COc1cc(O)c(C(CC(=O)N(C)c2cccc(C)c2)c2ccc3c(c2)OCO3)c(OC)c1 (stereo not shown) [Compound 28] | > 50 µM | – | – | –
22 | COc1cc(O)c(C(CC(=O)N2CCc3ccccc32)c2ccc3c(c2)OCO3)c(OC)c1 (stereo not shown) [Compound 32] | > 50 µM | – | – | –
23 | COc1cc(O)c([C@H](CC(=O)N2CC(C)CC(C)C2)c2ccc3c(c2)OCO3)c(OC)c1 (stereo partly shown) [Compound 36] | – | 91% | – | –
24 | CCc1ccc(O)c(C(CC(=O)N2CCCC(C)C2)c2ccc3c(c2)OCO3)c1 (stereo not shown) [Compound 112] | 11 to 50 µM | 106% | – | –
25 | COc1cc(OC)c(C(c2ccccc2)C(C)(C)C(=O)N2C3CCC2CC3)c(OC)c1 (stereo not shown) [Compound 153] | 1 to 10 µM | 36.5% | – | –
26 | COc1cc(O)c(C(CC(=O)N2CCCC(c3nc4ccccc4o3)C2)c2ccc3c(c2)OCO3)c(OC)c1 (stereo not shown) [Compound 18] | 11 to 50 µM | 90.6% | – | –
27 | COc1ccc(C)c(O)c1C(CC(=O)N1CCCC(C)C1)c1ccc2c(c1)OCO2 (stereo not shown) [Compound 130] | 11 to 50 µM | 77.5% | – | –
28 | COc1cc(O)c(C(CC(=O)N2CCCC(CO)C2)c2ccc3c(c2)OCO3)c(OC)c1 (stereo not shown) [Compound 20] | 11 to 50 µM | 44.7% | – | –
29 | COc1cc(O)c(C(CC(=O)N2CCCC(COc3ccc(F)cc3)C2)c2ccc3c(c2)OCO3)c(OC)c1 (stereo not shown) [Compound 19] | 11 to 50 µM | 47.5% | – | –
30 | COc1cc(O)c(C(CC(=O)N2CCCC(C)C2)c2ccc3c(c2)OCO3)c(OC)c1 (stereo not shown) [Compound 3] | 1 to 10 µM | 98.8% | – | –
31 | COc1cc(O)c(C(CC(=O)N2CC(C)CC(C)C2)c2cc(Cl)cc(Cl)c2)c(OC)c1 (stereo not shown) [Compound 97] | 11 to 50 µM | 61.5% | – | –
32 | CC1CC(C)CN(C(=O)CC(c2ccc(-n3cncn3)cc2)c2ccc3c(c2)OCO3)C1 (stereo not shown) [Compound 141, 3-(4-(1H-1,2,4-Triazol-1-yl)phenyl)-3-(benzo[d][1,3]dioxol-5-yl)-1-(3,5-dimethylpiperidin-1-yl)propan-1-one] | 11 to 50 µM | 106% | – | –
33 | CCC1(CC)CCN(C(=O)CC(c2ccc3c(c2)OCO3)c2c(O)cc(OC)cc2OC)C1 (stereo not shown) [Compound 10] | 11 to 50 µM | 89% | – | –
34 | COc1ccc(C(CC(=O)N2CCCC(C)C2)c2ccccc2)cc1 (stereo not shown) [Compound 51] | > 50 µM | – | – | –
35 | CC1CCCN(C(=O)CC(c2ccc3c(c2)OCO3)c2ccc(I)cc2O)C1 (stereo not shown) [Compound 131] | 11 to 50 µM | 33.2% | – | –
36 | Cc1cccc(C(CC(=O)NCc2ccco2)c2ccccc2)c1O (stereo not shown) [Compound 49] | > 50 µM | – | – | –
37 | COc1cc(O)c(C(CC(=O)N2CCCC(C(=O)N3CCCCC3)C2)c2ccc3c(c2)OCO3)c(OC)c1 (stereo not shown) [Compound 17] | > 50 µM | – | – | –

More lines, now with the values ahead:

Row | IC50 [1] | Emax | IC50 [2] | IC50 (Drosophila S2 cells, Gal4-RORγt luciferase reporter, 20 hr) | SMILES
38 | 11 to 50 µM | 86.4% | – | – | CC1CC(C)CN(C(=O)CC(c2ccc3c(c2)OCO3)c2cccc(F)c2O)C1 (stereo not shown) [Compound 143]
39 | 1 to 10 µM | 92.4% | 1 to 10 µM | – | COc1cc(O)c(C(CC(=O)N2CCCC(C)C2)c2ccc3ccccc3c2)c(OC)c1 (stereo not shown) [Compound 65]
40 | 1 to 10 µM | 94.1% | – | – | CC1CC(C)CN(C(=O)CC(c2ccc3c(c2)OCO3)c2c(O)ccc3cccnc23)C1 (stereo not shown) [Compound 146]
41 | 1 to 10 µM | 91.6% | – | – | COc1cc(OC)c(C(c2ccccc2)C(C)(C)C(=O)N2CC(C)OC(C)C2)c(OC)c1 (stereo not shown) [Compound 150]
42 | 11 to 50 µM | 52% | 11 to 20 µM | – | COc1cc(O)c(C(CC(=O)N2CCCC(C)C2)c2cccc3ccccc23)c(OC)c1 (stereo not shown) [Compound 66]
43 | 11 to 50 µM | 90.4% | – | – | COCC1CCCN(C(=O)CC(c2ccc3c(c2)OCO3)c2c(O)cc(OC)cc2OC)C1 (stereo not shown) [Compound 12]
44 | 11 to 50 µM | 63.5% | – | – | CCCC1CCN(C(=O)CC(c2ccc3c(c2)OCO3)c2c(O)cc(OC)cc2OC)C1 (stereo not shown) [Compound 9]
45 | 1 to 10 µM | 93.8% | 1 to 10 µM | – | COc1cc(OC)c(C(c2ccccc2)C(C)(C)C(=O)N2CC(C)CC(C)C2)c(OC)c1 (stereo not shown) [Compound 149, 1-(3,5-Dimethylpiperidin-1-yl)-2,2-dimethyl-3-phenyl-3-(2,4,6-trimethoxyphenyl)propan-1-one]
46 | 11 to 50 µM | 87.3% | – | – | CC1CCCN(C(=O)CC(c2ccc3c(c2)OCO3)c2cc(C(C)C)ccc2O)C1 (stereo not shown) [Compound 114]
47 | 11 to 50 µM | 48.2% | – | – | Cc1cc(C)c(O)c(C(CC(=O)N2CCCC(C)C2)c2ccc3c(c2)OCO3)c1 (stereo not shown) [Compound 116]
48 | 1 to 10 µM | 98% | – | – | C#CCOc1cc(OC)cc(OC)c1C(CC(=O)N1CCCC(C)C1)c1ccc2c(c1)OCO2 (stereo not shown) [Compound 123]
49 | 1 to 10 µM | 95.8% | – | – | COc1cc(O)c(C(CC(=O)N2CC(C)CC(C)C2)c2ccccc2Cl)c(OC)c1 (stereo not shown) [Compound 103]
50 | 1 to 10 µM | 93.3% | – | – | COc1cc(O)c(C(CC(=O)N2CC(C)CC(C)C2)c2cccc(OC(F)(F)F)c2)c(OC)c1 (stereo not shown) [Compound 93, 1-(3,5-Dimethylpiperidin-1-yl)-3-(2-hydroxy-4,6-dimethoxyphenyl)-3-(3-(trifluoromethoxy)phenyl)propan-1-one]
51 | 1 to 10 µM | 103% | – | – | COc1cc(O)c(C(CC(=O)N2CC(C)CC(C)C2)c2cccc(Br)c2)c(OC)c1 (stereo not shown) [Compound 85, 3-(3-Bromophenyl)-1-(3,5-dimethylpiperidin-1-yl)-3-(2-hydroxy-4,6-dimethoxyphenyl)propan-1-one]
52 | 1 to 10 µM | 92.6% | – | – | COc1cc(O)c(C(CC(=O)N2CC(C)CC(C)C2)c2cccc(OCc3ccccc3)c2)c(OC)c1 (stereo not shown) [Compound 91]
53 | 1 to 10 µM | 95.4% | – | – | COc1cc(O)c(C(CC(=O)N2CC(C)CC(C)C2)c2ccc(C(C)(C)C)cc2)c(OC)c1 (stereo not shown) [Compound 89, 3-(4-tert-Butylphenyl)-1-(3,5-dimethylpiperidin-1-yl)-3-(2-hydroxy-4,6-dimethoxyphenyl)propan-1-one]
54 | 1 to 10 µM | – | – | – | COc1cc(O)c(C(CC(=O)N2CC(C)CC(C)C2)c2cccc(C(=O)O)c2)c(OC)c1 (stereo not shown) [Compound 101, 3-(3-(3,5-Dimethylpiperidin-1-yl)-1-(2-hydroxy-4,6-dimethoxyphenyl)-3-oxopropyl)benzoic acid]
55 | < 1 µM | 94.7% | – | – | COc1cc(O)c(C(CC(=O)N2CC(C)CC(C)C2)c2ccc(SC)cc2)c(OC)c1 (stereo not shown) [Compound 105, 1-(3,5-Dimethylpiperidin-1-yl)-3-(2-hydroxy-4,6-dimethoxyphenyl)-3-(4-(methylthio)phenyl)propan-1-one]
56 | 1 to 10 µM | 92.6% | – | – | COc1cc(O)c(C(CC(=O)N2CC(C)CC(C)C2)c2ccc(C(=O)O)cc2)c(OC)c1 (stereo not shown) [Compound 99]
57 | 1 to 10 µM | 99.3% | 1 to 10 µM | – | COc1cc(O)c(C(CC(=O)N2CCCC(C)C2)c2ccc(C(C)C)cc2)c(OC)c1 (stereo not shown) [Compound 64]
58 | 1 to 10 µM | 94.6% | – | – | COc1cc(O)c(C(CC(=O)N2CC(C)CC(C)C2)c2ccc(OCc3ccccc3)cc2)c(OC)c1 (stereo not shown) [Compound 92]
59 | 1 to 10 µM | 99.1% | – | – | COc1cc(O)c(C(CC(=O)N2CC(C)CC(C)C2)c2ccc(CN3CCOCC3)cc2)c(OC)c1 (stereo not shown) [Compound 90]
60 | 1 to 10 µM | 94.9% | 1 to 10 µM | – | CC1CCCN(C(=O)CC(c2ccc3c(c2)OCO3)c2c(O)ccc3ccccc23)C1 (stereo not shown) [Compound 118]
61 | 1 to 10 µM | 103% | – | – | CC(=O)Nc1ccc(C(CC(=O)N2CC(C)CC(C)C2)c2ccc3c(c2)OCO3)c(O)c1 (stereo not shown) [Compound 133]
